Data set [1] in a line: Microsomal stability: incubation with human liver microsomes, residual parent compound by HPLC-MS/MS. Format: in vitro ADME. Conditions: up to 60 min, read-out: t1/2 hLM. The method, then:
Metabolic stability of compounds of the present invention was determined by incubation with human liver microsomes and subsequent determination of residual amount of the respective compound (“parent compound”) by HPLC-MS/MS.
In order to achieve this, in a final reaction volume of 1000 μl, each compound was incubated at a final concentration of 1 μM with 0.5 mg/ml human liver microsomes (HLM Pool 50 Donors, 20 mg/ml, BD Gentest, #452156, LotNr 88114) in 0.1 M Potassium phosphate buffer at pH 7.4, with a cofactor in form of a NADPH regenerating system (Promega, #V9510) according to the manufacturers' specifications. The final DMSO concentration in each sample was 0.4%. The incubation was performed at 37° C. under shaking conditions (Thermomixer, 1400 rpm) for different time intervals up to 60 min. To stop the reaction, for each time point 200 μl of the reaction were taken out and 200 μl ice-cold acetonitrile was added. Then, the samples were centrifuged (4° C., 14000*g for 15 min). The supernatant was analyzed for residual parent compound concentration and scanned for metabolites using HPLC-MS/MS. By using optimized MS methods for each compound, the peak area under curve for the compound specific signal is determined. The change of the peak areas over the assay time of 60 min resemble the remaining parent compound in % of T0. By these points, a balancing line was set. The half-time, as well as the clearance, can then be calculated on the basis of the slope.
A general note: Microsomes from liver hold many membrane-bound enzymes, among them those of drug oxidation.

The test system of data set [2] is INF-γ. Nature of the data set: Cytokine assay: INF-γ production by human PBMC stimulated with PHA. Format: cell-based. The conditions noted are these: Homo sapiens, PBMC, IC50 class, read-out: IFN-gamma Inhib. An outline of the steps:
(§1)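 Human donor PBMC (1×10^5 cells/well) were activated with 2 μg/ml PHA and exposed to compounds for 48 h. Supernatant IL-17A, IL-17F and IFN-γ were measured by Luminex or ELISA. Screening used 10, 1, 0.1 and 0.01 μM; IC50 values came from semilogarithmic titrations.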

In data set [3] the test system is IL-17A. Kind of data set: Cytokine assay: IL-17A production by human PBMC stimulated with PHA. Format: cell-based. Conditions: IC50 class, read-out: IL-17A Inhib. An outline of the steps:
as §1

The subject of data set [4] is IL-17F. Nature of the data set: Cytokine assay: IL-17F production by human PBMC stimulated with PHA. Format: cell-based. The conditions noted are these: IC50 class, read-out: IL-17F Inhib. An outline of the steps: as §1
The mark [5] stands for this setting: human liver microsomes 0.5 mg/ml, compound 1 μM, pH 7.4, 37° C.
[6] abbreviates: pH 7.4, human liver microsomes, 1 μM compound, 0.5 mg/ml HLM, 37° C.

Each structure is given as a SMILES string. pIC50: −log10 of the molar value. Like-named read-outs stand apart in the source and are kept apart here.

Consider `Cc1c(-c2onc(-c3ccccc3Cl)c2C(=O)OC2CC2)cnn1[C@H]1C[C@@](C)(O)C1` [Example 53, cyclopropyl 3-(2-chlorophenyl)-5-{5-methyl-1-[3-hydroxy-3-methylcyclobutyl]-1H-pyrazol-4-yl}-1,2-oxazole-4-carboxylate], for which, in data set [1] (setting [5]), the half-life at 1 μM was over 1.67 h. Also, the pIC50 in data set [2], in data set [3] and in data set [4] was over 7.30 each time.
`CC(C)(O)Cn1ncc(-c2onc(-c3c(F)cccc3Cl)c2C(=O)OC2CC2)c1C(F)(F)F` [Example 55, cyclopropyl 3-(2-chloro-6-fluorophenyl)-5-[1-(2-hydroxy-2-methylpropyl)-5-(trifluoromethyl)-1H-pyrazol-4-yl]-1,2-oxazole-4-carboxylate]: the half-life at 1 μM in data set [1] (setting [5]) was in the range of 0.667 to 1.67 h. The pIC50 in data set [2] is over 7.30; in data set [3] (Homo sapiens, PBMC) it was over 7.30; in data set [4] (Homo sapiens, PBMC) it was over 7.30.
`C[C@@H](O)Cn1ncc(-c2onc(-c3c(F)cccc3Cl)c2C(=O)OC2COC2)c1C(F)(F)F` [Example 58, oxetan-3-yl 3-(2-chloro-6-fluorophenyl)-5-{1-[(2R)-2-hydroxypropyl]-5-(trifluoromethyl)-1H-pyrazol-4-yl}-1,2-oxazole-4-carboxylate]: the half-life at 1 μM in data set [1] (setting [5]) is 0.667 to 1.67 h. For the same compound, the pIC50 in data set [2] is over 7.30; in data set [3] (Homo sapiens, PBMC), 6.30 to 7.30; in data set [4] (Homo sapiens, PBMC) it was over 7.30.
Regarding `Cc1c(-c2onc(-c3c(F)cccc3Cl)c2C(=O)OC2CC2)cnn1[C@H]1C[C@@](C)(O)C1` [Example 61, cyclopropyl 3-(2-chloro-6-fluorophenyl)-5-{5-methyl-1-[3-hydroxy-3-methylcyclobutyl]-1H-pyrazol-4-yl}-1,2-oxazole-4-carboxylate], the half-life at 1 μM in data set [1] (setting [5]) lay within 0.667 to 1.67 h. Also, the pIC50 in data set [2] is over 7.30; in data set [3] (Homo sapiens, PBMC) it was over 7.30; in data set [4] (Homo sapiens, PBMC) it was over 7.30.
As to `COCc1c(-c2c(F)cccc2Cl)noc1-c1cnn([C@H]2C[C@@](C)(O)C2)c1C(F)(F)F` [Example 69, 3-(4-(3-(2-chloro-6-fluorophenyl)-4-(methoxymethyl)isoxazol-5-yl)-5-(trifluoromethyl)-1H-pyrazol-1-yl)-1-methylcyclobutan-1-ol], the half-life at 1 μM in data set [1] (setting [5]) is over 1.67 h. The pIC50 in data set [2] was over 7.30; in data set [3] (Homo sapiens, PBMC) it was 6.30 to 7.30; in data set [4] (Homo sapiens, PBMC), 6.30 to 7.30.
Consider `C[C@@H](O)Cn1ncc(-c2onc(-c3c(F)cccc3Cl)c2COC2CC2)c1C(F)(F)F` [Example 85, (2R)-1-(4-(3-(2-chloro-6-fluorophenyl)-4-(cyclopropoxymethyl)isoxazol-5-yl)-5-(trifluoromethyl)-1H-pyrazol-1-yl)propan-2-ol], for which, in data set [1] (setting [5]), the half-life at 1 μM was 0.167 to 0.666 h. Besides, the pIC50 is over 7.30 in data set [2]; over 7.30 in data set [3] (Homo sapiens, PBMC); over 7.30 in data set [4] (Homo sapiens, PBMC).
As to `C[C@]1(O)C[C@@H](n2ncc(-c3onc(-c4c(F)cccc4Cl)c3COC3CC3)c2C(F)(F)F)C1` [Example 86, 3-(4-(3-(2-chloro-6-fluorophenyl)-4-(cyclopropoxymethyl)isoxazol-5-yl)-5-(trifluoromethyl)-1H-pyrazol-1-yl)-1-methylcyclobutan-1-ol], the half-life at 1 μM in data set [1] (setting [5]) is over 1.67 h. Also, the pIC50 in data set [2] was over 7.30; in data set [3] (Homo sapiens, PBMC) it was over 7.30; in data set [4] (Homo sapiens, PBMC), over 7.30.
With `C[C@]1(O)C[C@@H](n2ncc(-c3onc(-c4cccc(OCCN5CCOCC5)c4Cl)c3COC3CC3)c2C(F)(F)F)C1` [Example 92, 3-(4-(3-(2-chloro-3-(2-morpholinoethoxy)phenyl)-4-(cyclopropoxymethyl)isoxazol-5-yl)-5-(trifluoromethyl)-1H-pyrazol-1-yl)-1-methylcyclobutan-1-ol], in data set [1] (setting [6]), the half-life at 1 μM lay within 0.0333 to 0.167 h. For the same compound, the pIC50 is over 7.30 in data set [2]; over 7.30 in data set [3] (Homo sapiens, PBMC); over 7.30 in data set [4] (Homo sapiens, PBMC).
As for `C[C@@H](O)Cn1ncc(-c2onc(-c3c(F)cccc3Cl)c2-c2ncccn2)c1C(F)(F)F` [Example 97, (R)-1-(4-(3-(2-chloro-6-fluorophenyl)-4-(pyrimidin-2-yl)isoxazol-5-yl)-5-(trifluoromethyl)-1H-pyrazol-1-yl)propan-2-ol], the half-life at 1 μM in data set [1] (setting [6]) lay within 0.667 to 1.67 h. Moreover, the pIC50 in data set [2] was over 7.30; in data set [3] (Homo sapiens, PBMC), over 7.30; in data set [4] (Homo sapiens, PBMC) it was over 7.30.
Take `C[C@]1(O)C[C@@H](n2ncc(-c3onc(-c4c(F)cccc4Cl)c3-c3ncccn3)c2C(F)(F)F)C1` [Example 98, 3-(4-(3-(2-chloro-6-fluorophenyl)-4-(pyrimidin-2-yl)isoxazol-5-yl)-5-(trifluoromethyl)-1H-pyrazol-1-yl)-1-methylcyclobutanol]: the half-life at 1 μM in data set [1] (setting [6]) was over 1.67 h. Moreover, the pIC50 in data set [2] is over 7.30; in data set [3] (Homo sapiens, PBMC), over 7.30; in data set [4] (Homo sapiens, PBMC) it was over 7.30.
As to `C[C@]1(O)C[C@@H](n2ncc(-c3onc(-c4c(F)cccc4Cl)c3-c3cnccn3)c2C(F)(F)F)C1` [Example 100, 3-{4-[3-(2-chloro-6-fluorophenyl)-4-(pyrazin-2-yl)-1,2-oxazol-5-yl]-5-(trifluoromethyl)-1H-pyrazol-1-yl}-1-methylcyclobutan-1-ol], the half-life at 1 μM in data set [1] (setting [6]) was over 1.67 h. Besides, the pIC50 in data set [2] was over 7.30; in data set [3] (Homo sapiens, PBMC), 6.30 to 7.30; in data set [4] (Homo sapiens, PBMC), over 7.30.
Take `COc1cccc(-c2noc(-c3cnn([C@H]4C[C@@](C)(O)C4)c3C(F)(F)F)c2-c2ncccn2)c1Cl` [Example 103, 3-{4-[3-(2-chloro-3-methoxyphenyl)-4-(pyrimidin-2-yl)-1,2-oxazol-5-yl]-5-(trifluoromethyl)-1H-pyrazol-1-yl}-1-methylcyclobutan-1-ol]: in data set [1] (setting [6]), the half-life at 1 μM was over 1.67 h. Also, the pIC50 was over 7.30 in data set [2]; over 7.30 in data set [3] (Homo sapiens, PBMC); over 7.30 in data set [4] (Homo sapiens, PBMC).
For the compound `CC(C)(O)Cn1ncc(-c2onc(-c3c(F)cccc3Cl)c2-c2ncccn2)c1C(F)(F)F` [Example 118, 1-{4-[3-(2-chloro-6-fluorophenyl)-4-(pyrimidin-2-yl)-1,2-oxazol-5-yl]-5-(trifluoromethyl)-1H-pyrazol-1-yl}-2-methylpropan-2-ol], the half-life at 1 μM in data set [1] (setting [6]) is over 1.67 h. Moreover, the pIC50 in data set [2] was over 7.30; in data set [3] (Homo sapiens, PBMC), over 7.30; in data set [4] (Homo sapiens, PBMC) it was over 7.30.
With `COc1cccc(-c2noc(-c3cnn(CCC(C)(C)O)c3C(F)(F)F)c2-c2ncccn2)c1Cl` [Example 121, 4-{4-[3-(2-chloro-3-methoxyphenyl)-4-(pyrimidin-2-yl)-1,2-oxazol-5-yl]-5-(trifluoromethyl)-1H-pyrazol-1-yl}-2-methylbutan-2-ol], the half-life at 1 μM in data set [1] (setting [6]) was over 1.67 h. For the same compound, the pIC50 is over 7.30 in data set [2]; over 7.30 in data set [3] (Homo sapiens, PBMC); 6.30 to 7.30 in data set [4] (Homo sapiens, PBMC).
Take `COc1cccc(-c2noc(-c3cnn(CCC(C)(C)O)c3C)c2-c2ncccn2)c1Cl` [Example 124, 4-{4-[3-(2-chloro-3-methoxyphenyl)-4-(pyrimidin-2-yl)-1,2-oxazol-5-yl]-5-methyl-1H-pyrazol-1-yl}-2-methylbutan-2-ol]: the half-life at 1 μM in data set [1] (setting [6]) was over 1.67 h. Moreover, the pIC50 is over 7.30 in data set [2]; over 7.30 in data set [3] (Homo sapiens, PBMC); over 7.30 in data set [4] (Homo sapiens, PBMC).
Regarding `COc1ccc(Cl)c(-c2noc(-c3cnn(CCC(C)(C)O)c3C)c2-c2ncccn2)c1Cl` [Example 125, 4-{4-[3-(2,6-dichloro-3-methoxyphenyl)-4-(pyrimidin-2-yl)-1,2-oxazol-5-yl]-5-methyl-1H-pyrazol-1-yl}-2-methylbutan-2-ol], the half-life at 1 μM in data set [1] (setting [6]) is over 1.67 h. The pIC50 in data set [2] was over 7.30; in data set [3] (Homo sapiens, PBMC), 6.30 to 7.30; in data set [4] (Homo sapiens, PBMC), over 7.30.
Consider `Cc1c(-c2onc(-c3c(F)cccc3Cl)c2-c2ncccn2)cnn1CCC(C)(C)O` [Example 127, 4-{4-[3-(2-chloro-6-fluorophenyl)-4-(pyrimidin-2-yl)-1,2-oxazol-5-yl]-5-methyl-1H-pyrazol-1-yl}-2-methylbutan-2-ol], for which the half-life at 1 μM in data set [1] (setting [6]) was over 1.67 h. Also, the pIC50 in data set [2] was over 7.30; in data set [3] (Homo sapiens, PBMC), 6.30 to 7.30; in data set [4] (Homo sapiens, PBMC), 6.30 to 7.30.
In the case of `CC(C)(O)CCn1ncc(-c2onc(-c3cccc(OCCN4CCOCC4)c3Cl)c2-c2ncccn2)c1C(F)(F)F` [Example 133, 4-[4-(3-{2-chloro-3-[2-(morpholin-4-yl)ethoxy]phenyl}-4-(pyrimidin-2-yl)-1,2-oxazol-5-yl)-5-(trifluoromethyl)-1H-pyrazol-1-yl]-2-methylbutan-2-ol], the half-life at 1 μM in data set [1] (setting [6]) is 0.0333 to 0.167 h. Moreover, the pIC50 in data set [2] was over 7.30; in data set [3] (Homo sapiens, PBMC) it was over 7.30; in data set [4] (Homo sapiens, PBMC) it was over 7.30.

The values are drawn from US11292788B2, “IL-17 and IFN-gamma inhibition for the treatment of autoimmune diseases and chronic inflammation” (Immunic AG, priority 2017, dated 2022).
